Data published in ChEMBL document CHEMBL1148635, “Discovery, structure-activity relationship, and pharmacological evaluation of (5-substituted-pyrrolidinyl-2-carbonyl)-2-cyanopyrrolidines as potent dipeptidyl peptidase IV inhibitors” (J Med Chem, 2006).

How the values were obtained:
[1] = Half life in phosphate buffer at pH 7.4 at 37 degreeC; format: ADME
[2] = target: T1, Dipeptidyl peptidase 4 (Homo sapiens, UniProt P27487); experiment: Inhibition of human recombinant DPP4
[3] = target: T1, Dipeptidyl peptidase 4; experiment: Inhibition of human recombinant DPP4 by tight-binding assay in presence of 10% rat plasma; format: cell-free
[4] = target: T1, Dipeptidyl peptidase 4; experiment: Inhibition of human recombinant DPP4 by tight-binding assay
[5] = Cmax in Sprague-Dawley rat at 5 mg/kg, po; format: ADME, organism-based; set-up: dose 5 mg/kg, route oral; conditions: in vivo
[6] = Half life in Sprague-Dawley rat at 5 mg/kg, po; format: ADME, organism-based; set-up: dose 5 mg/kg, route oral; conditions: in vivo
[7] = Volume of distribution in Sprague-Dawley rat at 5 mg/kg; format: ADME, organism-based; set-up: dose 5 mg/kg; conditions: in vivo, read-out: Vdss
[8] = tested on: Rattus norvegicus; experiment: AUC in Sprague-Dawley rat at 5 mg/kg, po; format: ADME, organism-based, Plasma; set-up: dose 5 mg/kg, route oral; conditions: in vivo
[9] = Oral bioavailability in Sprague-Dawley rat at 5 mg/kg; format: ADME, organism-based; conditions: in vivo
[10] = Plasma clearance in Sprague-Dawley rat at 5 mg/kg, iv; format: ADME, organism-based; set-up: dose 5 mg/kg, route intravenous
[11] = target: Dipeptidyl peptidase 2 (Homo sapiens, UniProt Q9UHL4); experiment: Inhibition of DPP7 by tight-binding assay
[12] = target: T2, Prolyl endopeptidase (Homo sapiens, UniProt P48147); experiment: Inhibition of POP by tight-binding assay
T2 sequence (P48147 whole entry): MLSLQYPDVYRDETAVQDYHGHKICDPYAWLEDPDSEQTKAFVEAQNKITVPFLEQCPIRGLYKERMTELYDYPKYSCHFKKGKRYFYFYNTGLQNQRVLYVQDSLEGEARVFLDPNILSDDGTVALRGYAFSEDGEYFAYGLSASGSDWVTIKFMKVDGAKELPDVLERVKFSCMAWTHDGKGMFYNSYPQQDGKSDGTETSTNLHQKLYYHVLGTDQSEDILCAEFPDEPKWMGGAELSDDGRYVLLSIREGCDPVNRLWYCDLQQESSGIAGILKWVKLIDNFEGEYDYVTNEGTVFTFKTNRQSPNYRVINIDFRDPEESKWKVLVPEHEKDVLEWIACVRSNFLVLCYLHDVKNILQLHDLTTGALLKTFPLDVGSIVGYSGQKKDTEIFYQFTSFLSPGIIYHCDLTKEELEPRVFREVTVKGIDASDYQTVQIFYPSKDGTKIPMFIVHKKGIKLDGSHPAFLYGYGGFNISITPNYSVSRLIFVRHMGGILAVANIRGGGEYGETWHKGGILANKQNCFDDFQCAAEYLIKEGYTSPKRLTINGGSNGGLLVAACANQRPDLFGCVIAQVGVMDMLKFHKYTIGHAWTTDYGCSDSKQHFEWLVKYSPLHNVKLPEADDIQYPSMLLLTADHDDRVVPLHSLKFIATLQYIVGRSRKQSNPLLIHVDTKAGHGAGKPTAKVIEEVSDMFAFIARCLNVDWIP

[13] = tested on: Rattus norvegicus; experiment: Lowering of blood glucose level in ZDF rat at 3 mg/kg, po by oral glucose tolerance test; format: functional
[14] = tested on: Rattus norvegicus; experiment: Lowering of blood glucose level in ZDF rat at 0.1 mg/kg, po by oral glucose tolerance test; format: functional
[15] = tested on: Rattus norvegicus; experiment: Lowering of blood glucose level in ZDF rat at 1 mg/kg, po by oral glucose tolerance test; format: functional

T1 sequence (P27487 whole entry): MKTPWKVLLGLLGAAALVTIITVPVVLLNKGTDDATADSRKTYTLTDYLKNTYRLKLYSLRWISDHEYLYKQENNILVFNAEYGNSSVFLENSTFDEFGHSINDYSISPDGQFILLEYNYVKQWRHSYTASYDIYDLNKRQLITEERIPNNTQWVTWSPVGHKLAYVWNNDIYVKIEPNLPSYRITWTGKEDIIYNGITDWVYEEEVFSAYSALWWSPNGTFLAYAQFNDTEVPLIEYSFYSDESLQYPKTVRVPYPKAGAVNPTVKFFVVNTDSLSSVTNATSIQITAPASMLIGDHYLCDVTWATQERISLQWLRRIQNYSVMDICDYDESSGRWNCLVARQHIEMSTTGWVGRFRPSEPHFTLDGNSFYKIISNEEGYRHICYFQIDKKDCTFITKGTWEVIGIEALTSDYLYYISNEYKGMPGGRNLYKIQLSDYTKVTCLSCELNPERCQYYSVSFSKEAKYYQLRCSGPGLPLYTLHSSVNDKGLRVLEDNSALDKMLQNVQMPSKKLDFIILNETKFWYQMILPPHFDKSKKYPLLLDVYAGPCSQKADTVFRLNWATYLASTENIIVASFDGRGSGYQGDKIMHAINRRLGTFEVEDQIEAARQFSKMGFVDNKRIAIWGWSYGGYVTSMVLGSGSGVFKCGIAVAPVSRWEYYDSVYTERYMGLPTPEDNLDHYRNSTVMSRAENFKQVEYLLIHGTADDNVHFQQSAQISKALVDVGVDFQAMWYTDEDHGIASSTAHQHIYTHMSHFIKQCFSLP

| Compound | half-life [1] | Cmax [5] | half-life [6] | Vd [7] | AUC [8] | bioavailability [9] | clearance [10] | other results |
| --- | --- | --- | --- | --- | --- | --- | --- | --- |
| CC[C@H]1CC[C@@H](C(=O)N2CCC[C@H]2C#N)N1 | 16.4 h |  |  |  |  |  |  |  |
| N#C[C@@H]1CCCN1C(=O)[C@@H]1CC[C@H](COc2ccccc2Cc2ccccc2)N1 |  |  |  |  |  |  |  | Ki [2]: > 3000 nM; Ki [3]: Not Active; Ki [4]: Not Active |
| N#Cc1ccc(OC[C@H]2CC[C@@H](C(=O)N3CCC[C@H]3C#N)N2)c(Cl)c1 | 16.7 h | 4540 ng/mL | 1.5 h | 0.2 L/kg | 3140 ng·h/mL | 39% | 10.5 mL/min/kg |  |
| CC(C)(C)c1ccccc1OC[C@H]1CC[C@@H](C(=O)N2CCC[C@H]2C#N)N1 | 41.2 h | 25.2 ng/mL | 1.3 h | 1.14 L/kg | 28 ng·h/mL | 3% | 85 mL/min/kg |  |
| C[C@H]1CC[C@@H](C(=O)N2CCC[C@H]2C#N)N1 | 6.5 h | 752 ng/mL | 1.1 h | 13.5 L/kg | 652 ng·h/mL | 58% | 74.8 mL/min/kg |  |
| N#C[C@@H]1CCCN1C(=O)[C@@H]1CC[C@H](COc2cc(C(=O)O)cnc2Cl)N1 |  | 29 ng/mL | 1.2 h | 0.35 L/kg | 87 ng·h/mL | 2% | 16 mL/min/kg | Ki [11]: > 3000 nM; Ki [12]: 666 nM |
| N#C[C@@H]1CCCN1C(=O)[C@@H]1CC[C@H](COc2ccccc2Cl)N1 |  |  |  |  |  |  |  | Ki [12]: 2760 nM |
| N#C[C@@H]1CCCN1C(=O)[C@@H]1CC[C@H](COc2ccc3ccccc3c2)N1 | 10.8 h |  |  |  |  |  |  |  |
| N#C[C@@H]1CCCN1C(=O)[C@@H]1CC[C@H](COc2cc([N+](=O)[O-])c(Cl)cc2Cl)N1 |  | 805 ng/mL | 3.6 h | 0.22 L/kg | 2990 ng·h/mL | 13.5% | 3.83 mL/min/kg |  |
| N#C[C@@H]1CCCN1C(=O)[C@@H]1CC[C@H](COc2ccc(C(=O)O)cc2Cl)N1 | 19.8 h |  |  |  |  |  |  | Ki [12]: 1740 nM |
| N#C[C@@H]1CCCN1C(=O)[C@@H]1CC[C@H](COc2ccc(Br)cc2)N1 | 7.8 h |  |  |  |  |  |  |  |
| N#C[C@@H]1CCCN1C(=O)[C@@H]1CCCN1 | 1.3 h |  |  |  |  |  |  |  |
| CC(C)(C)c1cc(C(=O)O)ccc1OC[C@H]1CC[C@@H](C(=O)N2CCC[C@H]2C#N)N1 | 65.4 h | 5580 ng/mL | 4.2 h | 1 L/kg | 9630 ng·h/mL | 63% | 5.33 mL/min/kg |  |
| N#C[C@@H]1CCCN1C(=O)[C@@H]1CC[C@H](COc2cc(C(=O)O)c[n+]([O-])c2Cl)N1 |  |  |  |  |  |  |  | Ki [11]: > 3000 nM; Ki [12]: 1530 nM |
| CS(=O)(=O)c1ccc(OC[C@H]2CC[C@@H](C(=O)N3CCC[C@H]3C#N)N2)c(Br)c1 |  | 3730 ng/mL | 2.2 h | 0.3 L/kg | 2920 ng·h/mL | 40% | 14 mL/min/kg |  |
| CC(C)c1cc(C(=O)O)ccc1OC[C@H]1CC[C@@H](C(=O)N2CCC[C@H]2C#N)N1 |  | 2470 ng/mL | 3.5 h | 0.73 L/kg | 4110 ng·h/mL | 34% | 7 mL/min/kg | Ki [11]: > 3000 nM; Activity [13]: 30%; Activity [14]: 3%; Activity [15]: 17% |
| CC(C)[C@H]1CC[C@@H](C(=O)N2CCC[C@H]2C#N)N1 (mixture of isomers) | > 100 h |  |  |  |  |  |  |  |
| N#C[C@@H]1CCCN1C(=O)[C@@H]1CC[C@H](COc2cc(C(=O)O)ccc2Cl)N1 (mixture of isomers) | > 100 h | 146 ng/mL | 6.9 h | 0.35 L/kg | 1280 ng·h/mL | 7% | 4.83 mL/min/kg | Ki [11]: > 3000 nM |
